Tests used:
[1] = test system: adenosine-sensitive receptors of thrombocytes; experiment: ADP-induced aggregation of thrombocytes in vitro (Born method); assay type: cell-based, rabbit; settings: 3 min incubation, ADP 10^−5 M
Summary of the method: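 Platelet-rich plasma from fasted male Chinchilla rabbits (citrated, […]), stirred at 37° C. ADP at 10^−5 M final was added, then compounds at 10^−3 to 10^−7 M for 3 min. Read-out was maximum aggregation amplitude as % fall in optical density, with platelet-poor plasma as 0%.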

[2] = test system: adenosine-sensitive receptors of erythrocytes; experiment: Chemiluminescence study of bonding to erythrocytes and competition with adenosine; assay type: binding, mice of line BALB/c; settings: 37° C. vs 4° C.; 10^−7 to 10^−5 M
Experimental: The interaction of compounds 2, 15, 21, 37 according to the invention with adenosine-sensitive receptors of erythrocytes of female mice of line BALB/c of an age of 8-12 months was investigated.
The dependence of the chemiluminescence intensity of the compounds according to the invention in an alkaline solution of 0.1N NaOH was determined in the presence of hydrogen peroxide being an initiator of chemiluminescence. The chemiluminescence was studied using the <<LKB>> chemiluminometer.
The erythrocytes of peripheral blood of the mice at first were washed three times by a normal physiological solution with centrifuging and then diluted in the Henks solution without glucose by 10 volumes of distilled water immediately used in the experiment.
At the first stage of the experiments the washed erythrocytes were incubated at a temperature of 37° C. or at 4° C. with solutions of the compounds according to the invention at a concentration of 10^−7 to 10^−5 M for 5-30 minutes, then washed by a normal physiological solution with repeated centrifuging in the cold. The obtained suspension of erythrocytes with the bound compounds according to the invention was placed in 0.1N solution of NaOH with addition of hydrogen peroxide at a final concentration of 10^−7 M. The chemiluminescence intensity was measured. A suspension of erythrocytes without compounds according to the invention was used as a control medium.
At the second stage of the experiments the washed erythrocytes were incubated at a temperature of 37° C. with solutions of the compounds according to the invention at a concentration of 10^−11 to 10^−8M during
5-30 minutes, then washed twice with a normal physiological solution by centrifuging in the cold, the obtained suspension was mixed with an adenosine solution at a concentration of 10^−6 to 10^−4 and incubated for 15 minutes, then washed twice with a normal physiological solution with centrifuging in the cold. The obtained suspension of erythrocytes with the compounds according to the invention was placed in 0.1N solution of NaOH with addition of hydrogen peroxide in the final concentration of 10^−7 M. The chemiluminescence intensity was measured.

[3] = test system: indicator enzymes in blood plasma; experiment: Morphine abstinence model: indicator enzymes AST, ALT, γ-GTP in blood plasma; assay type: in vivo, rats Wistar
Experimental: The experiments were carried out on rats in series of 7 animals on each compound according to the invention. Non-morphinized animal with not administered with compounds according to the invention were used as a control group. […] Then the rats were decapitated, the blood from somnolent arteries was collected in test tubes with solution EDTA as an anticoagulant, centrifuged at 1500 g for 15 minutes at 4° C.
To estimate possible hepatoprotective action of the compounds according to the invention under conditions of development of an oxidizing stress in the liver cells, effect of these compounds on the most important biochemical blood indexes, in particular, on the content in blood plasma of indicator enzyme of aspartateaminotransferase (AST), alanineaminotransferase (ALT), γ-glutamiletranspeptidase (γ-GTP) was investigated. The content of enzymes was estimated by their catalyzing activity in blood plasma.
The activity of AST, ALT and γ-GTP was determined by means of diagnostic sets DiaSys, Germany.

[4] = test system: synthase of nitrogen oxide (NOC); experiment: Morphine abstinence model: activity of synthase of nitrogen oxide (radiometric, [3H]L-citrulline); assay type: in vivo, rats Wistar
thymus = experiment: Morphine abstinence model: thymus condition; assay type: in vivo, rats; settings: compound alone
[5] = compound alone 20.0 mg/kg intramuscularly
[6] = morphinized rats then compound 20.0 mg/kg intramuscularly

**Q.** `Nc1cccc2c(=O)[nH][nH]c(=O)c12.[Na]` [Compound 15, sodium salt of 5-amino-benzo[d]-3H-pyridazine-1,4-dione] was tested. Which “MA - fall of optical density of plasma, % to the standard” value (shortened to “MA - fall … % to the standard”) ([1]; 10^−3 M) did it give?
**A.** 44.8 ± 2.8 %

**Q.** And the “MA - fall … % to the standard” value ([1]; 10^−4 M)?
**A.** 46.3 ± 1.7 %

**Q.** What about the “MA - fall … % to the standard” value ([1]; 10^−5 M) of the same compound?
**A.** 39.8 ± 3.1 %

**Q.** What about the “MA - drop of optical density, % compared to control” value ([1]; 10^−6 M) of the same compound?
**A.** 47.3 ± 1.8 %

**Q.** And the “MA - drop of optical density, % compared to control” value ([1]; 10^−7 M)?
**A.** 49.3 ± 1.4%

**Q.** And the “bond with the erythrocytes: dependence on incubation temperature” value [2]?
**A.** does not depend on the temperature

**Q.** And the “ALT, Ci, mE/l, Control + compound” value [3, 5]?
**A.** 113.48 ± 2.39 mE/l

**Q.** What about the “AST, Ci, mE/l, Control + compound” value [3, 5] of the same compound?
**A.** 173.46 ± 5.63 mE/l

**Q.** And the “γ-GTP, Ci, mE/l, Control + compound” value [3, 5]?
**A.** 7.03 ± 2.82 mE/l

**Q.** What about the “ALT, Ci, mE/l, control + Morphine + Compound” value [3, 6] of the same compound?
**A.** 121.08 ± 5.04 mE/l

**Q.** And the “AST, Ci, mE/l, control + Morphine + Compound” value [3, 6]?
**A.** 195.57 ± 18.68 mE/l

**Q.** And the “γ-GTP, Ci, mE/l, control + Morphine + Compound” value [3, 6]?
**A.** 10.69 ± 1.84 mE/l

**Q.** What about the “Activity of NOC, Hypothalamus, Control + Compound” value [4, 5] of the same compound?
**A.** 5.45 ± 0.24 pmol/min/mg of protein

**Q.** What about the “Activity of NOC, Mesencephalon, Control + Compound” value [4, 5] of the same compound?
**A.** 2.60 ± 0.29 pmol/min/mg of protein

**Q.** And the “Activity of NOC, Hypothalamus, Control + Morphine + compound” value [4, 6]?
**A.** 5.26 ± 0.28 pmol/min/mg of protein

**Q.** And the “Activity of NOC, Mesencephalon, Control + Morphine + compound” value [4, 6]?
**A.** 1.83 ± 0.23 pmol/min/mg of protein

**Q.** What about the “Nitrites, thymus Supernatant, Administration of compounds” value (thymus) of the same compound?
**A.** 0.407 ± 0.02 nmol/mg of protein

**Q.** And the “Thymus mass, Administration of compounds” value (thymus)?
**A.** 298 ± 25 mg

— US20070166547A1, “Use of a layer consisting of hydrophobic linear, or two-dimensional polycyclic aromatics as a barrier layer or an encapsulation and electric components constructed with a layer of this type and comprising organic polymers” (priority 2003, published 2007)
